Assay results published in patent US10251865B2, “Method of activating regulatory T cells with alpha-2B adrenergic receptor agonists” (Allergan, Inc., priority 2010, dated 2019).

Assays:
[1] = test system: SNL Rat Model of Allodynic Neuropathic Pain; details: background statement on the model, cited from earlier work
[2] = test system: IL-2; assay: IL-2 levels in tissues from SNL rats (Luminex cytokine analysis); type: in vivo, rat; details: for IL-2 level, Ipsilateral DRGL4 / IL-2 level, Ipsilateral DRGL5, L6 / IL-2 level, Ipsilateral spinal cord / IL-2 level, Serum: 2.4 mg/kg/day via osmotic minipump, mean ± SEM
Method: (§1) The SNL (or Chung) Model in the rat is an accepted standard animal model of neuropathic pain and is thought to mimic the human causalgia condition with respect to symptoms (guarding behavior, mechanical allodynia) and alleviation by pharmacological agents. […] The SNL Model is performed by tightly ligating the L-5 and L-6 spinal nerves, which produces tactile allodynia or sensitivity to light touch as described (Kim and Chung, 1992). Male sprague-dawley rats (100-120 grams; Charles River, Wilmington, Mass.) were anesthetized through inhalation of an isoflurane/oxygen mix. The surgical site was shaved and prepared with betadine. An incision was made from the thoracic vertebra XIII toward down the sacrum. The muscle was separated from the spinal vertebra (left side) at the L4-S2 levels. The L6 vertebra was located and then the transverse process was carefully removed with a small rongeur to visually identify the L4-L6 spinal nerves. The L5 and L6 spinal nerves was isolated and tightly ligated with 6-0 silk thread. A complete homeostasis was confirmed and then the wound was sutured. The duration of the surgery was approximately 20 minutes. A small amount of antibiotic ointment was applied to the incised area and the animals were transferred to a plastic recovery cage under a regulated heat-temperature lamp. Animals were not given any topical or local anesthetics post-operatively because they will inhibit the development of the pain syndrome, which is the phenomenon to be studied.
Compound A was formulated in 50% DMSO (Sigma, St. Louis, Mo.). This solution was loaded into the osmotic minipumps (Model 1007D, Alzet Corp., Palo Alto, Calif.) set to deliver the drug at a rate of 0.5 ul/hr resulting in a final dose of 2.4 mg/kg/day. The vehicle for these studies is 50% DMSO administered via osmotic minipumps at a rate of 0.5 ul/hr/kg.
The levels of cytokines were measured with a sensitive, fluorescent multiplex immunobead assay (Luminex; Biosource-Invitrogen, Carlsbad, Calif.). 9 plex rat cytokine/chemokine (RCYTO-80K-09) panel from Millipore was used. Cytokine levels in samples were analyzed by using the corresponding Millipore cytokine Beadmate pairs. For the Luminex assay, a 96-well filter plate (Millipore) was pre-wetted with 25 μl of Beadlyte cytokine assay buffer. A vacuum manifold (Millipore, Billerica, Mass.) was used to aspirate the buffer from the wells. 25 μl of sample was placed in each well. The beads (25 μl) were pipetted into the wells. Standard curves for each cytokine were generated in duplicate by placing 25 μl of the appropriate dilution of standards purchased from Millipore. The plate was incubated overnight with gentle shaking in the dark at 4° C. Beads were washed with Beadlyte cytokine assay buffer (Millipore) and wash buffer was eliminated using a vacuum manifold. 25 μl of the appropriate biotin-conjugated secondary antibody (Millipore) was added to each well for 90 minutes at room temperature with gentle shaking. Beads were incubated with Beadlyte streptavidin-phycoerythrin (1:25 dilution in Beadlyte assay buffer) for 30 minutes at room temperature with gentle shaking. Beads were washed, resuspended in 125 μl of Beadlyte buffer, and analyzed by Luminex 100 instrument (Luminex Corporation, Austin, Tex.). The mean fluorescence intensities obtained from 50 beads per cytokine minimum were analyzed using Upstate Beadview software. Standard curves were generated (8 data points including a zero standard run in duplicate) using a four- or five-parametric logistic curve. R-squared values were between 0.99 and 1. Data are expressed in pg/ml or ng/ml values.

[3] = test system: SNL Rat Model of Allodynic Neuropathic Pain; assay: Allodynia reversal (Von Frey) in the SNL Rat Model of Allodynic Neuropathic Pain; type: in vivo; details: SNL rats, 3 mg/kg BID SC alone
Method: as §1
The allodynia is quantitated in the animals having received the Chung surgery by stimulation with a series of 8 Von Frey hairs on the mid planter area of the surgical hind paw in the up-down manner as described in the literature (Dixon, 1980). Von Frey hairs are applied in an up-down manner depending on the response until the 50% threshold is established. The Von Frey hairs are applied to the plantar surface of the surgical paw with just enough force to bend them. A positive response is recorded if the paw is sharply withdrawn. Eight Von Frey hairs were used 3.61, 3.84, 4.08, 4.31, 4.56, 4.74, 4.93 and 5.18 yielding a gram force of 0.25-15 grams.
[formula] • Mean±SEM: • Mean=average of allodynia reversals • SEM=STDEV/SQ ROOT of n
Testing with compounds is done 2-3 weeks after surgery to establish stable allodynia. In all experimental animals, baseline measurements were taken prior to drug administration and then at 24 hours and 5-23 days post dosing with Alzet osmotic minipump. The investigator was blinded to the identity of the drug groups. The % allodynia reversal is calculated as: [(Postdrug threshold−Predrug threshold)/(15-Predrug threshold)]×100.
Compound B was formulated in 50% DMSO (dimethyl sulfoxide; Sigma, St. Louis, Mo.). This solution was dosed orally TID at a dose of 0.3 or 1 mg/kg. For dosing in the osmotic minipumps (Model 1007D, Alzet Corp., Palo Alto, Calif.) the compound was loaded onto the pumps set to deliver a final dose of either 1 or 3 mg/kg/day. The vehicle for these studies is 50% DMSO.
Compound C was formulated first in 100% DMSO (Sigma, St. Louis, Mo.), then diluted down in 30% DMSO for a 10 mg/ml solution; 15% DMSO for a 3 mg/ml solution and further dilutions were made in water. The compound was dosed orally TID at a dose of either 0.3 or 1 mg/kg for a total daily dose of 1 or 3 mg/kg/day, respectively.

[4] = Table 3 study, mean % MPE ± SEM

CN1CC[C@]23c4c5ccc(O)c4O[C@H]2[C@@H](O)C=C[C@H]3[C@H]1C5 [morphine]
alleviation of tactile allodynia [1]: does not alleviate

OCCNC(=S)NCc1cccc(Cl)c1F [Compound A]
IL-2 level, Ipsilateral DRGL4 ([2]; 24 hours): 101.63 ± 20.55 pg/mL | IL-2 level, Ipsilateral DRGL5, L6 ([2]; 24 hours): 211 ± 33.72 pg/mL | IL-2 level, Ipsilateral spinal cord ([2]; 24 hours): 345 ± 19.34 pg/mL | IL-2 level, Serum ([2]; 24 hours): 978 ± 77.13 pg/mL | IL-2 level, Ipsilateral DRGL4 ([2]; 5 days): 69.52 ± 9.42 pg/mL | IL-2 level, Ipsilateral DRGL5, L6 ([2]; 5 days): 138.35 ± 22.59 pg/mL | IL-2 level, Ipsilateral spinal cord ([2]; 5 days): 351.75 ± 17.19 pg/mL | IL-2 level, Serum ([2]; 5 days): 380.25 ± 61.67 pg/mL | spinal nerve ligation surgery-induced increase of IL-2 levels ([2]; result in words): attenuated

NCC1(CC(=O)O)CCCCC1 [Gabapentin]
alleviation of allodynia ([1]; 30 mg/kg p.o.): 50%

C=CC[C@@H]1/C=C(\C)C[C@H](C)C[C@H](OC)[C@H]2O[C@@](O)(C(=O)C(=O)N3CCCC[C@H]3C(=O)O[C@H](/C(C)=C/[C@@H]3CC[C@@H](O)[C@H](OC)C3)[C@H](C)[C@@H](O)CC1=O)[C@H](C)C[C@@H]2OC [FK506, reference compound]
% Allodynia Reversal 24 hr post ([3]; Table 2 study): −5.77 ± 3.43% | % Allodynia Reversal 7 day post ([3]; Table 2 study): −6.39 ± 4.85% | % Allodynia Reversal 24 hr post [3, 4]: −0.53 ± 6.21% | % Allodynia Reversal 23 day post [3, 4]: 2.01 ± 5.86%
